Results published in ChEMBL document CHEMBL3046503, “Insulinotropic activity of chromonyl-2,4-thiazolidinediones” (2009).

Legend:
Assay type in all cases: functional
INS1 [1] = test: Insulinotropic activity in Rattus norvegicus (rat) INS-1 cells assessed as increase of glucose-induced insulin release at 0.001 mg/ml after 90 min by radioimmunoassay relative to 5.6 mM of glucose
INS1 [2] = test: Insulinotropic activity in Rattus norvegicus (rat) INS-1 cells assessed as increase of glucose-induced insulin release at 0.01 mg/ml after 90 min by radioimmunoassay relative to 5.6 mM of glucose
INS1 [3] = test: Insulinotropic activity in Rattus norvegicus (rat) INS-1 cells assessed as increase of glucose-induced insulin release at 3 mM after 90 min by radioimmunoassay relative to 5.6 mM of glucose

| Structure (SMILES) | Activity (INS1 [1]) [%] | Activity (INS1 [2]) [%] | Activity (INS1 [3]) [%] |
| --- | --- | --- | --- |
| CCOC(=O)CN1C(=O)S/C(=C/c2coc3ccccc3c2=O)C1=O | 83.15 | 65.53 |  |
| O=C1NC(=O)/C(=C\c2coc3ccc([N+](=O)[O-])cc3c2=O)S1 | 81.44 | 69.2 |  |
| Cc1ccc2occ(/C=C3/SC(=O)NC3=O)c(=O)c2c1 | 90.53 | 75.61 |  |
| Cc1cc(C)c2occ(/C=C3/SC(=O)NC3=O)c(=O)c2c1 | 85.89 | 84.64 |  |
| CC(C)c1ccc2occ(/C=C3/SC(=O)NC3=O)c(=O)c2c1 | 89.46 | 81.55 |  |
| O=C(O)CN1C(=O)S/C(=C/c2coc3ccc([N+](=O)[O-])cc3c2=O)C1=O | 107.8 | 111 |  |
| Cc1ccc2occ(/C=C3/SC(=O)N(CC(=O)O)C3=O)c(=O)c2c1 | 102.2 | 120.7 |  |
| CCOC(=O)CN1C(=O)S/C(=C/c2coc3c(C)cc(C)cc3c2=O)C1=O | 138 | 154.4 |  |
| CC(C)c1ccc2occ(/C=C3/SC(=O)N(CC(=O)O)C3=O)c(=O)c2c1 | 125.6 | 144.3 |  |
| O=C1NC(=O)/C(=C\c2coc3ccccc3c2=O)S1 | 83.98 | 63.57 |  |
| CCOC(=O)CN1C(=O)S/C(=C/c2coc3ccc(C(C)C)cc3c2=O)C1=O | 138.5 | 180.5 |  |
| CCOC(=O)CN1C(=O)S/C(=C/c2coc3ccc([N+](=O)[O-])cc3c2=O)C1=O | 98.8 | 74.1 |  |
| O=C(O)CN1C(=O)S/C(=C/c2coc3ccccc3c2=O)C1=O | 117.2 | 121 |  |
| CCOC(=O)CN1C(=O)S/C(=C/c2coc3ccc(C)cc3c2=O)C1=O | 153.1 | 177.7 |  |
| Cc1cc(C)c2occ(/C=C3/SC(=O)N(CC(=O)O)C3=O)c(=O)c2c1 | 102.8 | 131.6 |  |
| OC[C@H]1OC(O)[C@H](O)[C@@H](O)[C@@H]1O (some centres not stated) [DEXTROSE] |  |  | 73 |
| COc1ccc(Cl)cc1C(=O)NCCc1ccc(S(=O)(=O)NC(=O)NC2CCCCC2)cc1 [GLYBURIDE] | 179.6 |  |  |
